Assay results published in patent publication US6737383B1, “Herbicidal oxadiazolidines” (priority 1999, dated 2004).

What was measured:
bedstraw = assay: Test B pre/postemergence bedstraw; type: in vivo, Galium aparine; details: Postemergence
In short: (§1)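 Test chemicals in a non-phytotoxic solvent mixture with surfactant were sprayed preemergence onto planted seeds and postemergence onto plants 2 to 18 cm tall (1- to 4-leaf stage). After twelve to sixteen days in a greenhouse, injury was visually rated against untreated controls from 0 (no effect) to 10 (complete control).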

blackgrass = assay: Test B pre/postemergence blackgrass; type: in vivo, Alopecurus myosuroides
In short: as §1

surinam grass = assay: Test B pre/postemergence surinam grass; type: in vivo, Brachiaria decumbens
In short: as §1

cocklebur = assay: Test B pre/postemergence cocklebur; type: in vivo, Xanthium strumarium
In short: as §1

corn = assay: Test B pre/postemergence corn; type: in vivo, Zea mays
In short: as §1

crabgrass = assay: Test B pre/postemergence crabgrass; type: in vivo, Digitaria sanguinalis
In short: as §1

giant foxtail = assay: Test B pre/postemergence giant foxtail; type: in vivo, Setaria faberii
In short: as §1

morningglory = assay: Test B pre/postemergence morningglory; type: in vivo, Ipomoea hederacea
In short: as §1

rape = assay: Test B pre/postemergence rape; type: in vivo, Brassica napus
In short: as §1

soybean = assay: Test B pre/postemergence soybean; type: in vivo, Glycine max
In short: as §1

velvetleaf = assay: Test B pre/postemergence velvetleaf; type: in vivo, Abutilon theophrasti
In short: as §1

wheat = assay: Test B pre/postemergence wheat; type: in vivo, Triticum aestivum
In short: as §1

wild oat = assay: Test B pre/postemergence wild oat; type: in vivo, Avena fatua
In short: as §1

smallflower flatsedge = assay: Test B flood test smallflower flatsedge; type: in vivo, Cyperus difformis
In short: (§2)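 Read-out is a visual response score from 0 (no effect) to 10 (complete control), assigned by comparison with untreated controls. Treatment was applied at the 2-leaf stage, and plants stayed in the greenhouse for twelve to sixteen days before scoring.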

duck salad = assay: Test B flood test duck salad; type: in vivo, Heteranthera limosa
In short: as §2

bamyardgrass = assay: Test B flood test barnyardgrass; type: in vivo, Echinochloa crus-galli
In short: as §2

[1] = Postemergence, Rate 250 g/ha, scale 0 to 10
[2] = Postemergence, Rate 500 g/ha, scale of 0 to 10 where 0 is no effect and 10 is complete control
[3] = Preemergence, Rate 62 g/ha, scale 0 to 10 (0 no effect, 10 complete control)
[4] = Preemergence, Rate 125 g/ha, scale of 0 to 10 where 0 is no effect and 10 is complete control
[5] = Preemergence, Rate 250 g/ha, scale 0 to 10, 0 is no effect, 10 is complete control
[6] = Preemergence, Rate 500 g/ha, scale 0 to 10, 0 is no effect, 10 is complete control
[7] = Rate 62 g/ha, Postemergence, scale 0 to 10, 0 no effect, 10 complete control
[8] = Rate 125 g/ha, Postemergence, scale 0 to 10, 0 is no effect, 10 is complete control
[9] = Postemergence block (flood test species), Rate 250 g/ha, scale 0 to 10
[10] = Postemergence section (flood test species), Rate 500 g/ha, scale of 0 to 10 where 0 is no effect and 10 is complete control
[11] = Rate 62 g/ha, Postemergence (flood test), scale 0 to 10, 0 no effect, 10 complete control
[12] = Rate 125 g/ha, Postemergence section (flood test species), scale 0 to 10, 0 is no effect, 10 is complete control

With CC(C)N(C(=O)n1oc(=O)n(CCC#N)c1=O)c1ccccc1 [Compound 436] the “Bedstraw plant response rating” value (bedstraw; Rate 250 g/ha, scale 0 to 10) was 0, the “Bedstraw plant response rating” value (bedstraw; Rate 62 g/ha, scale 0 to 10, 0 no effect, 10 complete control) was 0 and the “Bedstraw plant response rating” value (bedstraw; Rate 125 g/ha, scale 0 to 10, 0 is no effect, 10 is complete control) was 0. The “Blackgrass plant response rating” value (blackgrass; [1]) was 0, the “Blackgrass plant response rating” value (blackgrass; [2]) was 9 and the “Plant response rating, Blackgrass” value (blackgrass; [3]) was 0. The “Plant response rating, Blackgrass” value (blackgrass; [4]) was 0, the “Blackgrass plant response rating” value (blackgrass; [5]) was 0 and the “Blackgrass plant response rating” value (blackgrass; [6]) was 9. For the same molecule, the “Blackgrass plant response rating” value (blackgrass; [7]) was 0, the “Blackgrass plant response rating” value (blackgrass; [8]) was 0 and the “B. signalgrass plant response rating” value (surinam grass; Postemergence, Rate 250 g/ha, scale 0 to 10, 0 no effect, 10 complete control) was 0. For the same molecule, the “B. signalgrass plant response rating” value (surinam grass; [2]) was 8, the “Plant response rating, B. signalgrass” value (surinam grass; [3]) was 0 and the “Plant response rating, B. signalgrass” value (surinam grass; [4]) was 0. The “B. signalgrass plant response rating” value (surinam grass; [5]) was 0, the “B. signalgrass plant response rating” value (surinam grass; [6]) was 10 and the “B. signalgrass plant response rating” value (surinam grass; [7]) was 0. For the same molecule, the “B. signalgrass plant response rating” value (surinam grass; [8]) was 0, the “Cocklebur plant response rating” value (cocklebur; [1]) was 0 and the “Cocklebur plant response rating” value (cocklebur; [2]) was 0. For the same molecule, the “Plant response rating, Cocklebur” value (cocklebur; [3]) was 0, the “Plant response rating, Cocklebur” value (cocklebur; [4]) was 0 and the “Cocklebur plant response rating” value (cocklebur; [5]) was 0. For the same molecule, the “Cocklebur plant response rating” value (cocklebur; [6]) was 0, the “Cocklebur plant response rating” value (cocklebur; [7]) was 0 and the “Cocklebur plant response rating” value (cocklebur; [8]) was 0. The “Corn plant response rating” value (corn; [1]) was 0, the “Corn plant response rating” value (corn; [2]) was 5 and the “Plant response rating, Corn” value (corn; [3]) was 0. The “Plant response rating, Corn” value (corn; [4]) was 0, the “Corn plant response rating” value (corn; [5]) was 0 and the “Corn plant response rating” value (corn; [6]) was 9. For the same molecule, the “Corn plant response rating” value (corn; [7]) was 0, the “Corn plant response rating” value (corn; [8]) was 0 and the “Crabgrass plant response rating” value (crabgrass; [1]) was 1. For the same molecule, the “Crabgrass plant response rating” value (crabgrass; [2]) was 9, the “Plant response rating, Crabgrass” value (crabgrass; [3]) was 0 and the “Plant response rating, Crabgrass” value (crabgrass; [4]) was 0. The “Crabgrass plant response rating” value (crabgrass; [5]) was 0, the “Crabgrass plant response rating” value (crabgrass; [6]) was 10 and the “Crabgrass plant response rating” value (crabgrass; [7]) was 0. The “Crabgrass plant response rating” value (crabgrass; [8]) was 0, the “Giant foxtail plant response rating” value (giant foxtail; [1]) was 1 and the “Giant foxtail plant response rating” value (giant foxtail; [2]) was 9. For the same molecule, the “Plant response rating, Giant foxtail” value (giant foxtail; [3]) was 0, the “Plant response rating, Giant foxtail” value (giant foxtail; [4]) was 0 and the “Giant foxtail plant response rating” value (giant foxtail; [5]) was 0. For the same molecule, the “Giant foxtail plant response rating” value (giant foxtail; [6]) was 10, the “Giant foxtail plant response rating” value (giant foxtail; [7]) was 0 and the “Giant foxtail plant response rating” value (giant foxtail; [8]) was 0. The “Morningglory plant response rating” value (morningglory; [1]) was 2, the “Morningglory plant response rating” value (morningglory; [2]) was 10 and the “Plant response rating, Morningglory” value (morningglory; [3]) was 0. The “Plant response rating, Morningglory” value (morningglory; [4]) was 0, the “Morningglory plant response rating” value (morningglory; [5]) was 0 and the “Morningglory plant response rating” value (morningglory; [6]) was 1. For the same molecule, the “Morningglory plant response rating” value (morningglory; [7]) was 0, the “Morningglory plant response rating” value (morningglory; [8]) was 0 and the “Rape plant response rating” value (rape; [1]) was 0. For the same molecule, the “Rape plant response rating” value (rape; [2]) was 4, the “Plant response rating, Rape” value (rape; [3]) was 0 and the “Plant response rating, Rape” value (rape; [4]) was 0. The “Rape plant response rating” value (rape; [5]) was 0, the “Rape plant response rating” value (rape; [6]) was 10 and the “Rape plant response rating” value (rape; [7]) was 0. For the same molecule, the “Rape plant response rating” value (rape; [8]) was 0, the “Soybean plant response rating” value (soybean; [1]) was 0 and the “Soybean plant response rating” value (soybean; [2]) was 4. For the same molecule, the “Plant response rating, Soybean” value (soybean; [3]) was 0, the “Plant response rating, Soybean” value (soybean; [4]) was 0 and the “Soybean plant response rating” value (soybean; [5]) was 0. For the same molecule, the “Soybean plant response rating” value (soybean; [6]) was 0, the “Soybean plant response rating” value (soybean; [7]) was 0 and the “Soybean plant response rating” value (soybean; [8]) was 0. The “Velvetleaf plant response rating” value (velvetleaf; [1]) was 0, the “Velvetleaf plant response rating” value (velvetleaf; [2]) was 3 and the “Plant response rating, Velvetleaf” value (velvetleaf; [3]) was 0. For the same molecule, the “Plant response rating, Velvetleaf” value (velvetleaf; [4]) was 0, the “Velvetleaf plant response rating” value (velvetleaf; [5]) was 0 and the “Velvetleaf plant response rating” value (velvetleaf; [6]) was 7. For the same molecule, the “Velvetleaf plant response rating” value (velvetleaf; [7]) was 0, the “Velvetleaf plant response rating” value (velvetleaf; [8]) was 0 and the “Wheat plant response rating” value (wheat; [1]) was 0. For the same molecule, the “Wheat plant response rating” value (wheat; [2]) was 7, the “Plant response rating, Wheat” value (wheat; [3]) was 0 and the “Plant response rating, Wheat” value (wheat; [4]) was 0. The “Wheat plant response rating” value (wheat; [5]) was 0, the “Wheat plant response rating” value (wheat; [6]) was 5 and the “Wheat plant response rating” value (wheat; [7]) was 0. For the same molecule, the “Wheat plant response rating” value (wheat; [8]) was 0, the “Wild oats plant response rating” value (wild oat; [1]) was 0 and the “Wild oats plant response rating” value (wild oat; [2]) was 3. For the same molecule, the “Plant response rating, Wild oats” value (wild oat; [3]) was 0, the “Plant response rating, Wild oats” value (wild oat; [4]) was 0 and the “Wild oats plant response rating” value (wild oat; [5]) was 0. For the same molecule, the “Wild oats plant response rating” value (wild oat; [6]) was 10, the “Wild oats plant response rating” value (wild oat; [7]) was 0 and the “Wild oats plant response rating” value (wild oat; [8]) was 0. For the same molecule, the “S. Flatsedge plant response rating” value (smallflower flatsedge; [9]) was 0, the “S. Flatsedge plant response rating” value (smallflower flatsedge; [10]) was 0 and the “S. Flatsedge plant response rating” value (smallflower flatsedge; [11]) was 0. For the same molecule, the “S. Flatsedge plant response rating” value (smallflower flatsedge; [12]) was 0, the “Ducksalad plant response rating” value (duck salad; [9]) was 0 and the “Ducksalad plant response rating” value (duck salad; [10]) was 0. The “Ducksalad plant response rating” value (duck salad; [11]) was 0, the “Ducksalad plant response rating” value (duck salad; [12]) was 0 and the “Barnyardgrass plant response rating” value (bamyardgrass; [9]) was 0. The “Barnyardgrass plant response rating” value (bamyardgrass; [10]) was 0, the “Barnyardgrass plant response rating” value (bamyardgrass; [11]) was 0 and the “Barnyardgrass plant response rating” value (bamyardgrass; [12]) was 0.
